The record followed here is patent US10689399B2, “Substituted 3,4,5,6,8,10,14,14a-octahydro-2h-2,6-methanopyrido[1′,2′:4,5]pyrazino[2,1-b][1,3]oxazocines and methods for treating viral infections” (Gilead Sciences, Inc., priority 2012, dated 2020).

This assay deals with HIV-IIIb. Briefly: Antiviral assay in MT4 cells. The assay is classed as cell-based. The conditions noted are these: Human immunodeficiency virus 1, IIIB, MT4, 120 h, MT4 cells infected with HIV-IIIb, 5 days, CellTiter-Glo; read-out: EC50 nM in MT-4. In outline: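 MT4 cells pre-infected with HIV-IIIb (0.004 m.o.i.) at 37 °C, or mock-infected, then seeded at 2000 cells/well onto 3-fold serially diluted compound (10 concentrations, quadruplicate) in RPMI 1640 with 10% FBS. After 5 days at 37 °C, cell viability read by CellTiter-Glo luminescence.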
Usually EC50 stands for the midpoint of the concentration-response curve. For `O=C(NCc1ncc(F)cc1F)c1cn2c(c(O)c1=O)C(=O)N1[C@H]3CC[C@H](C3)[C@@H]1C2` [Compound 76, (1R,4S,12aR)—N-((3,5-difluoropyridin-2-yl)methyl)-7-hydroxy-6,8-dioxo-1,2,3,4,6,8,12,12a-octahydro-1,4-methanodipyrido[1,2-a:1′,2′-d]pyrazine-9-carboxamide], the EC50 came to 17.8 nM.

`O=C(NCc1c(F)cc(F)cc1F)c1cn2c(c(O)c1=O)C(=O)N1[C@H]3CCC[C@H](C3)[C@H]1C2` [Compound 85, (6 aS,7R,11S)-1-hydroxy-2,13-dioxo-N-(2,4,6-trifluorobenzyl)-6,6a,7,8,9,10,11,13-octahydro-2H-7,11-methanopyrido[1′,2′: 4,5]pyrazino[1,2-a]azepine-3-carboxamide]: the EC50 came out at 2 nM.

In the case of `C[C@@H](NC(=O)c1cn2c(c(O)c1=O)C(=O)N1[C@H]3CC[C@H](C3)[C@@H]1C2)c1c(F)cc(F)cc1F` [Compound 77, (1R,4 S,12aR)-7-hydroxy-6,8-dioxo-N—((R)-1-(2,4,6-trifluorophenyl)ethyl)-1,2,3,4,6,8,12,12a-octahydro-1,4-methanodipyrido[1,2-a:1′,2′-d]pyrazine-9-carboxamide], the concentration giving a half-maximal response (EC50) turned out to be 5.6 nM.

Take `O=C(NCc1ccc(F)cc1F)c1cn2c(c(O)c1=O)C(=O)N1C(C2)[N@@]2CC[C@@H]1C2` (stereo partly drawn) [Compound 4, (1S,4R)—N-(2,4-difluorobenzyl)-7-hydroxy-6,8-dioxo-3,4,6,8,12,12a-hexahydro-2H-1,4-methanopyrido[1′,2′:4,5]pyrazino[1,2-a]pyrimidine-9-carboxamide]: the EC50 amounted to 14.8 nM.

For `O=C(NCc1ccc(F)cc1F)c1cn2c(c(O)c1=O)C(=O)N1[C@H]3CC[C@H](CC3)[C@H]1C2` [Compound 100, (1R,4R,12aS)—N-(2,4-difluorobenzyl)-7-hydroxy-6,8-dioxo-1,2,3,4,6,8,12,12a-octahydro-1,4-ethanodipyrido[1,2-a:1′,2′-d]pyrazine-9-carboxamide], the EC50 was found to be 2.2 nM.

For `O=C(NCc1ccc(F)cc1F)c1cn2c(c(O)c1=O)C(=O)N1C(C2)[N@]2CCC[C@H]1C2` (stereo partly drawn) [Compound 19, (1R,5S)—N-(2,4-difluorobenzyl)-8-hydroxy-7,9-dioxo-2,3,4,5,7,9,13,13a-octahydro-1,5-methanopyrido[1′,2′:4,5]pyrazino[1,2-a][1,3]diazepine-10-carboxamide], the concentration for a half-maximal effect (EC50) was found to be 2.8 nM.

As to `O=C(NC1(c2ccc(F)cc2F)CCC1)c1cn2c(c(O)c1=O)C(=O)N1C(C2)O[C@H]2CC[C@@H]1C2` (stereo partly drawn) [Compound 32, (2S,5R)—N-(1-(2,4-difluorophenyl)cyclobutyl)-8-hydroxy-7,9-dioxo-2,3,4,5,7,9,13,13a-octahydro-2,5-methanopyrido[1′,2′: 4,5]pyrazino[2,1-b][1,3]oxazepine-10-carboxamide], the EC50 was 14 nM.

On to `O=C(NCc1ccccc1)c1cn2c(c(O)c1=O)C(=O)N1[C@H]3CC[C@H](C3)[C@@H]1C2` [Compound 94, (1R,4S,12aR)—N-benzyl-7-hydroxy-6,8-dioxo-1,2,3,4,6,8,12,12a-octahydro-1,4-methanodipyrido[1,2-a:1′,2′-d]pyrazine-9-carboxamide], for which the EC50 was 11.5 nM.

In the case of `O=C(N[C@@H](c1ccc(F)cc1F)C(F)(F)F)c1cn2c(c(O)c1=O)C(=O)N1C(C2)O[C@H]2CC[C@@H]1C2` (stereo partly drawn) [Compound 36, (2S,5R)—N—((S)-1-(2,4-difluorophenyl)-2,2,2-trifluoroethyl)-8-hydroxy-7,9-dioxo-2,3,4,5,7,9,13,13a-octahydro-2,5-methanopyrido[1′,2′:4,5]pyrazino[2,1-b][1,3]oxazepine-10-carboxamide], the EC50 was found to be 7.6 nM.

`O=C(NCc1ccc(F)cc1F)c1cn2c(c(O)c1=O)C(=O)N1[C@@H]3CC[C@@H](C3)O[C@H]1C2` [Compound 3, (2S,5R,13aS)—N-(2,4-difluorobenzyl)-8-hydroxy-7,9-dioxo-2,3,4,5,7,9,13,13a-octahydro-2,5-methanopyrido[1′,2′:4,5]pyrazino[2,1-b][1,3]oxazepine-10-carboxamide]: the EC50 stood at 2 nM.

Regarding `O=C(NCc1ccccc1F)c1cn2c(c(O)c1=O)C(=O)N1[C@@H]3CC[C@@H](C3)O[C@H]1C2` [Compound 23, (2 S,5R,13aS)—N-(2-fluorobenzyl)-8-hydroxy-7,9-dioxo-2,3,4,5,7,9,13,13a-octahydro-2,5-methanopyrido[1′,2′:4,5]pyrazino[2,1-b][1,3]oxazepine-10-carboxamide], the EC50 worked out at 2.3 nM.

Take `O=C(NCc1ccc(F)c(F)c1)c1cn2c(c(O)c1=O)C(=O)N1[C@H]3CC[C@H](C3)[C@@H]1C2` [Compound 66, (1R,4S,12aR)—N-(3,4-difluorobenzyl)-7-hydroxy-6,8-dioxo-1,2,3,4,6,8,12,12a-octahydro-1,4-methanodipyrido[1,2-a:1′,2′-d]pyrazine-9-carboxamide]: the 50% effective concentration (EC50) amounted to 9.4 nM.
